Data on 19 compounds can be found in patent US5468756A, “Imidazonaphthyridine derivatives” (Kyowa Hakko Kogyo Co., Ltd., priority 1990, dated 1995).

Series [1] relates to carrageenin-induced paw edema. The series is described as follows: Effect on carrageenin-induced paw edema. The class given is in vivo, male Wistar rats. As to conditions: Rattus norvegicus, 3 hours after carrageenin, read-out: Suppression rate for paw swelling, carrageenin-induced edema; for inhibition in vivo at 100 mg/kg: p.o.; for inhibition in vivo at 50 mg/kg: po, 50 mg/kg P.O. Here is the method: a) Effect on carrageenin-induced paw edema
(§1) Male Wistar rats weighing 150 to 160 g (n=3-5) were used in the experiment. After the right hind paw volume was measured with the plethysmograph (TK-101; Unicom Co., Ltd.), the test compound (25, 50 or 100 mg/kg) was orally administered. After one hour, 0.1 ml of 1% carrageenin (λ-carrageenin; PICNIN-A®, Zushi Kagaku Co., Ltd.) was subcutaneously injected into the right hind paw footpad. Three hours after the injection of carrageenin, the right hind paw volume was measured and the swelling rate was determined by the following equation 1. [formula] Vt: the right hind paw volume measured 3 hours after the injection of carrageenin
(§2) Vo: the right hind paw volume measured prior to the injection of carrageenin
(§3) The suppression rate was calculated by the following equation 2. [formula] Swt: the swelling rate of the group administered with the test compound Swc: the swelling rate of the control group administered with physiological saline solution
Background: In the carrageenan paw model, swelling and tenderness develop within hours.

In series [2] the test system is passive Schultz-Dale reaction. Briefly: Effect on passive Schultz-Dale reaction (broncho-dilative activity), sensitized tracheal strips contracted by antigen. Details: species or system male Hartley guinea pigs. The following applies: guinea pig tracheal zig-zag strips, 37° C., antigen egg white albumin 1 μg/ml; read-out: Passive Schultz-Dale reaction IC50 (concentration of 50% relaxation rate). As to the method:
d) Effect on passive Schultz-Dale reaction (broncho-dilative activity)
Male Hartley guinea pigs weighing 350 to 500 g were passively sensitized by intraperitoneal injection of rabbit anti-OA serum prepared in advance by the method of Koda et al. [Folia Pharmacol., Japon 66, 237, (1970)]. After 24 hours, the guinea pigs were stunned and exsanguinated, and then tracheae were removed. The zig-zag strips of the tracheae were prepared by the method of Emmerson and Mackay [J. Pharm. Pharmacol., 31, 798, (1979)]. The strips were suspended in Krebs-Henseleit solution at 37° C. under aeration of a mixed gas of 95% oxygen and 5% carbon dioxide, and equilibrated for one hour. Then, antigen (egg white albumin) was introduced in the solution (final concentration; 1 μg/ml), and the contraction was measured by isotonictransducer (TD-112s, made by Nihon Kohden K.K., Japan) and recorded on a recorder (Type 3066, made by Yokogawa-Hokushin Denki, K.K. Japan). After the contraction curves reached a plateau, the test compounds were successively added in order to get cumulative concentration-relaxation curves. The concentration of 50% relaxation rate (IC50) was calculated from the regression line, which was obtained from the cumulative concentration-relaxation curves.

The subject of series [3] is platelet activating factor (PAF)-induced mortality. The series is described as follows: Inhibition effect on platelet activating factor (PAF)-induced mortality. The class given is in vivo, male dd mice. The following applies: Mus musculus, po, PAF 40 μg/kg i.v., 3 h, read-out: Survival rate of test compound-administered group; for responders at 100 mg/kg: n = 10, control group survival 0-20%. As to the method: e) Inhibition effect on platelet activating factor (PAF)-induced mortality
The experiment was carried out by a minor modification of a known method [Br. J. Pharmacol., 79, 595 (1983)]. Groups each consisting of 10 male dd mice (weighing 28 to 32 g) were used, and 50 or 100 mg/kg of the test compound or a saline (control) was orally administered. One hour after the administration of test compound, 40 μg/kg of PAF (manufactured by Avanti Polar Lipids Co., Ltd.) was intravenously administered. Three hours after PAF injection, the mortality of the animals was observed.

For series [4], the system named is ddY strain male mice. The series is described as follows: Acute toxicity (Minimum Lethal Dose). Type of series: in vivo. Here is the method: The test compound was orally and intraperitoneally administered to ddY strain male mice weighing 20 to 25 g. MLD (Minimum Lethal Dose) was determined by observing the mortality for […] after the administration.
Series [5] has as its system zymosan-induced paw edema. Briefly: Effect on zymosan-induced paw edema. Type of series: in vivo, male Wistar rats. The following applies: Rattus norvegicus, po; 25 mg/kg P.O.; read-out: Suppression rate for paw swelling, zymosan-induced edema. Here is the method:
as §1, §2, §3
b) Effect on zymosan-induced paw edema
The experiment was carried out in the same manner as in the carrageenin-induced paw edema test except that 1% zymosan (Zymosan A®; Sigma Chemical Co.) was used in place of 1% carrageenin and the right hind paw volume was measured […] the injection of the edema-inducing substance instead of 3 hours. The swelling rate and the suppression rate were calculated by equation 1 and equation 2, respectively.

As for `CC(c1ccccc1)n1cnc2c3cccnc3n(-c3ccccc3)c(=O)c21` (stereo not drawn) [Compound 16, 3-(α-Methyl)benzyl-5-phenyl-3H-imidazo[4,5-c][1,8]naphthyridin-4(5H)-one], in series [1], the inhibition in vivo at 100 mg/kg came to 3.5%. The IC50 in series [2] is over 10 µM. The responders at 100 mg/kg in series [3] stood at 0%. In series [4], the “MLD (Minimum Lethal Dose) i.p.” value is over 100 mg/kg and the “MLD (Minimum Lethal Dose) p.o.” value is reported as over 300 mg/kg.
The corresponding values for `O=C(O)Cn1cnc2c3cccnc3n(-c3ccccc3)c(=O)c21` [Compound 17, 3-Carboxymethyl-5-phenyl-3H-imidazo[4,5-c][1,8]naphthyridin-4(5H)-one] are 10.8%, over 10 µM, 30%, over 100 mg/kg and over 300 mg/kg.
On to `Cc1nc2c([nH]1)c(=O)n(-c1ccccc1)c1ncccc21` [Compound 18, 2-Methyl-5-phenyl-3H-imidazo[4,5-c][1,8]naphthyridin-4(5H)-one], for which the inhibition in vivo at 100 mg/kg in series [1] worked out at 23.7%. Further, the inhibition in vivo at 25 mg/kg in series [5] was determined as 26.7%. In series [2], the IC50 is over 10 µM. Further, the responders at 100 mg/kg in series [3] stood at 90%.
`O=c1c2[nH]c(-c3ccccc3)nc2c2cccnc2n1-c1ccccc1` [Compound 19, 2,5-Diphenyl-3H-imidazo[4,5-c][1,8]naphthyridin-4(5H)-one]: the inhibition in vivo at 100 mg/kg in series [1] was 1.7%. In series [2], the IC50 is over 10 µM. The responders at 100 mg/kg in series [3] is 60%.
For `O=c1c2[nH]c(S)nc2c2cccnc2n1-c1ccccc1` [Compound 20, 2-Mercapto-5-phenyl-3H-imidazo[4,5-c][1,8]naphthyridin-4(5H)-one] the same measures were 6.8%, over 10 µM and 30%.
Regarding `O=c1c2[nH]c(O)nc2c2cccnc2n1-c1ccccc1` [Compound 21, 2-Hydroxy-5-phenyl-3H-imidazo[4,5-c][1,8]naphthyridin-4(5H)-one], in series [1], the inhibition in vivo at 100 mg/kg stood at 2.3%. For the same compound, in series [2], the IC50 was determined as 2 µM. For the same compound, the responders at 100 mg/kg in series [3] amounted to 30%. Also, in series [4], the “MLD (Minimum Lethal Dose) i.p.” value is over 100 mg/kg and the “MLD (Minimum Lethal Dose) p.o.” value is on record as over 300 mg/kg.
`Cc1ccc(-n2c(=O)c3[nH]cnc3c3cccnc32)cc1` [Compound 24, 5-(4-Methyl)phenyl-3H-imidazo[4,5-c][1,8]naphthyridin-4(5H)-one]: the inhibition in vivo at 50 mg/kg in series [1] stood at 0.3%. For the same compound, in series [2], the IC50 was over 10 µM. For the same compound, the responders at 100 mg/kg in series [3] was found to be 40%.
`Cc1cccc(-n2c(=O)c3[nH]cnc3c3cccnc32)c1` [Compound 25, 5-(3-Methyl)phenyl-3H-imidazo[4,5-c][1,8]naphthyridin-4(5H)-one]: the inhibition in vivo at 100 mg/kg in series [1] worked out at 13.8%. Moreover, the IC50 in series [2] is over 10 µM. Also, in series [3], the responders at 100 mg/kg came out at 60%.
For `O=c1c2[nH]cnc2c2cccnc2n1-c1cccc(Cl)c1` [Compound 26, 5-(3-Chloro)phenyl-3H-imidazo[4,5-c][1,8]naphthyridin-4(5H)-one] the same measures were 15.2%, over 10 µM and 90%.
For `CCCCn1c(=O)c2[nH]cnc2c2cccnc21` [Compound 27, 5-n-Butyl-3H-imidazo[4,5-c][1,8]naphthyridin-4(5H)-one] the same measures were 8.6%, over 10 µM and 60%.
As for `CCCCCCn1cnc2c3cccnc3n(-c3ccccc3)c(=O)c21` [Compound 30, 3-Hexyl-5-phenyl-3H-imidazo[4,5-c][1,8]naphthyridin-4(5H)-one], the inhibition in vivo at 100 mg/kg in series [1] worked out at 48.5%. The inhibition in vivo at 25 mg/kg in series [5] is 33.5%. Besides, the responders at 100 mg/kg in series [3] amounted to 90%. Moreover, in series [4], the “MLD (Minimum Lethal Dose) i.p.” value is on record as over 100 mg/kg and the “MLD (Minimum Lethal Dose) p.o.” value is over 300 mg/kg.
Turning to `O=c1c2c(ncn2Cc2ccc(Cl)cc2)c2cccnc2n1-c1ccccc1` [Compound 40, 3-(4-Chlorophenyl)methyl-5-phenyl-3H-imidazo[4,5-c][1,8]naphthyridin-4(5H)-one], in series [1], the inhibition in vivo at 100 mg/kg stood at 21.3%. The inhibition in vivo at 25 mg/kg in series [5] is 42.8%. The responders at 100 mg/kg in series [3] is 40%.
In the case of `O=c1c2c(ncn2Cc2ccc([N+](=O)[O-])cc2)c2cccnc2n1-c1ccccc1` [Compound 42, 3-(4-Nitrophenyl)methyl-5-phenyl-3H-imidazo[4,5-c][1,8]naphthyridin-4(5H)-one], in series [1], the inhibition in vivo at 100 mg/kg is 35.9%. In addition, in series [5], the inhibition in vivo at 25 mg/kg was determined as 45.6%. For the same compound, the responders at 50 mg/kg in series [3] (50 mg/kg p.o., n = 10, control group survival 0%) is 100%.
For the compound `Cc1ccc(Cn2cnc3c4cccnc4n(-c4ccccc4)c(=O)c32)cc1` [Compound 43, 3-(4-Methylphenyl)methyl-5-phenyl-3H-imidazo[4,5-c][1,8]naphthyridin-4(5H)-one], in series [1], the inhibition in vivo at 100 mg/kg stood at 39.2%. The inhibition in vivo at 25 mg/kg in series [5] turned out to be 56.2%. In series [3], the responders at 100 mg/kg is 70%. Also, in series [4], the “MLD (Minimum Lethal Dose) i.p.” value is over 100 mg/kg and the “MLD (Minimum Lethal Dose) p.o.” value is given as over 300 mg/kg.
For `COc1ccc(Cn2cnc3c4cccnc4n(-c4ccccc4)c(=O)c32)cc1` [Compound 45, 3-(4-Methoxyphenyl)methyl-5-phenyl-3H-imidazo[4,5-c][1,8]naphthyridin-4(5H)-one], the inhibition in vivo at 100 mg/kg in series [1] stood at 37.8%. In series [5], the inhibition in vivo at 25 mg/kg amounted to 66.9%. Also, in series [3], the responders at 100 mg/kg came to 40%.
In the case of `COc1cccc(Cn2cnc3c4cccnc4n(-c4ccccc4)c(=O)c32)c1` [Compound 46, 3-(3-Methoxyphenyl)methyl-5-phenyl-3H-imidazo[4,5-c][1,8]naphthyridin-4(5H)-one], the inhibition in vivo at 25 mg/kg in series [5] stood at 43.5%. In addition, the responders at 100 mg/kg in series [3] turned out to be 10%.
For `O=c1c2c(ncn2Cc2cccc([N+](=O)[O-])c2)c2cccnc2n1-c1ccccc1` [Compound 47, 3-(3-Nitrophenyl)methyl-5-phenyl-3H-imidazo[4,5-c][1,8]naphthyridin-4(5H)-one], the inhibition in vivo at 100 mg/kg in series [1] was found to be 33.1%. The inhibition in vivo at 25 mg/kg in series [5] worked out at 35.7%. In addition, the responders at 100 mg/kg in series [3] came out at 0%. Also, in series [4], the “MLD (Minimum Lethal Dose) i.p.” value is recorded as over 100 mg/kg and the “MLD (Minimum Lethal Dose) p.o.” value was over 300 mg/kg.
On to `Cc1cccc(-n2c(=O)c3c(ncn3Cc3ccccc3)c3cccnc32)c1` [Compound 58, 5-(3-Methylphenyl)-3-benzyl-3H-imidazo[4,5-c][1,8]naphthyridin-4(5H)-one], for which the inhibition in vivo at 50 mg/kg in series [1] is 36.3%. Moreover, the inhibition in vivo at 25 mg/kg in series [5] was found to be 47%. Moreover, the responders at 100 mg/kg in series [3] was found to be 100%. Besides, in series [4], the “MLD (Minimum Lethal Dose) i.p.” value is given as over 100 mg/kg and the “MLD (Minimum Lethal Dose) p.o.” value is on record as over 300 mg/kg.
The corresponding values for `O=c1c2c(ncn2Cc2ccccc2)c2cccnc2n1-c1cccc(Cl)c1` [Compound 59, 5-(3-Chlorophenyl)-3-benzyl-3H-imidazo[4,5-c][1,8]naphthyridin-4(5H)-one] are 36.4%, 47.9%, 70%, over 100 mg/kg and over 300 mg/kg.
